Assay results reported in publication PMC5051066, “Pharmacokinetics of calycopterin and xanthmicrol, two polymethoxylated hydroxyflavones with anti-angiogenic activities from Dracocephalum kotschyi Bioss” (DARU Journal of Pharmaceutical Sciences, 2016).
“Also recorded” adds a separate entry of the source.

Tests used:
[1] = Pharmacokinetic study after i.v. administration in rats (online SPE HPLC of plasma, two-compartment model); format: in vivo, male Wistar rats; details: for t1/2 (biological half-life) / K12 (rate constant of transfer from the peripheral compartment into the central compartment) / K21 (rate constant of transfer from the central compartment into the peripheral compartment) / half-life / C0 / clearance / k el / Vd: i.v. bolus, 20 mg/kg; for t1/2 (biological half-life) / half-life / C0 / clearance / k el / Vd: plasma; for K12 (rate constant of transfer from the peripheral compartment into the central compartment) / K21 (rate constant of transfer from the central compartment into the peripheral compartment) / C0 / clearance / k el / Vd: two-compartment model; for half-life / C0 / clearance / k el / Vd: male, Wistar, rat, iv; for half-life: read-out: t1/2 (biological half-life) (converted); for C0: read-out: C0 (initial plasma concentration); for clearance: read-out: Cla (clearance rate of the central compartment) (converted); for k el: read-out: Kel (rate constant of elimination from the central compartment) (converted); for Vd: read-out: Vc (volume of distribution of the central compartment)
Experimental: Confirmation of calycopterin, xanthomicrol and circimaritin identity was carried out using HPLC analysis of purified compound compared to the material obtained from previous work and also IR spectroscopy. A HPLC method with online solid phase extraction was developed for the analysis of xanthomicrol and calycopterin in biological fluids (Fig. 1) using circimaritin as internal standard (IS). 100 μL of plasma and 10 μL of 500 μg/mL IS were mixed in a 2 mL microcentrifuge tube. 40 μL of 10 mg/mL ZnSO4 was added to the tube and the content was mixed. After addition of 200 μL acetonitrile, the tube was placed in an orbital shaker for 10 min. The samples were subsequently centrifuged at 14000 g for 10 min the supernatant was subjected to online extraction/HPLC analysis as follows:
At the start of every run, the sample injection valve and the sample extraction valve were switched to load position (Fig. 1). 250 μL of sample was injected into the sample loop of the sample injection valve. The valve was switched to the inject position which diverted the flow from the online SPE (solid phase extraction) solvent delivery pump (500 μL/min) through the sample loop which in turned carried the sample onto the online SPE column (3×15mm, ODS-2, 5 μm). After 2 min, the sample extraction valve was switched to inject position. This allowed the mobile phase from the analysis solvent delivery pump (1 mL/min) to wash any material retained by the online SPE system, onto the analytical column (4.6×150mm, ODS-2, 5 μm, Tracer Excell, Technochroma, Spain) for separation and measurement. The mobile phase pumped by online SPE solvent delivery pump consisted of acetonitrile:water (35:65) and the mobile phase pumped by the analysis solvent delivery pump was composed of acetonitrile:methanol:water:triethylamine (37:24:38.5:0.5). 16 min after the start of analysis, the mobile phase pumped by the analysis solvent delivery pump was switched to methanol:tetrahydrofurane:dichloromethane (80:10:10) for 3 min. This allowed for highly non-polar compounds retained by the SPE and analytical column to be flushed. Detection was at 263 nm.
All procedures involving animals were carried out after the approval and under the supervision of the Ethics Committee for Animal Expreiments of Iran University for Medical Sciences. In order to be able to withdraw blood samples at predefined time points during pharmacokinetic studies, femoral vein of male Wistar rats, in the weight range of 280 to 300 g, were catheterized, under anaesthesia, using the method described by Jespersen et al.. After the placement of the catheter, the animals were allowed to recover for 24 h, during which time, the rats were checked for signs of bleeding and the catheters were checked for patency.
Xanthomicrol or calycopterin was dissolved in 200 μL of dimethylsulfoxide (DMSO) and injected into the dorsal tail vein of rats. Just before drug injection (time zero) and at 1, 5, 10, 20, 60, 120 and 240 min after drug injection, 300 μL of blood were withdrawn via the femoral vein which had been catheterized previously. In order to prevent phlebotomy induced hypovolemia, 200 μL normal saline was injected via the femoral catheter after each blood sample withdrawal. Blood samples were centrifuged at 4 °C for 10 min at 4000 g. Plasma was collected and stored frozen at -80 °C until needed.
Pharmacokinetic parameters obtained from constructing the residual concentration verses time curve for these two-compartmental models are presented in Table 3. Rate constants for transfer between the central and peripheral compartments (K21and K12) and also the elimination process (Kel) were also calculated.

[2] = Predicted plasma concentration-time profiles from the two compartment models; details: rat, single I.V. dose of 30 mg/kg, predicted from two compartment model
Experimental: Our aim in this work was to find doses of these flavonoids which could produce such plasma levels over extended periods. […] The models generated, were used to predict the plasma concentration-time profiles for different doses of calycopterin and xanthomicrol (Fig. 7). After a single I.V. dose of 30 mg/kg, xanthomicrol plasma concentration would be greater than 500 ng/mL for more than 6 h while calycopterin’s plasma concentration would dip below 500 ng/mL 30 min after administration.
Fig. 7 Predicted plasma calycopterin (●) and xanthomicrol (○) concentration-time profiles after a single IV bolus dose of 30 mg/kg or either compound in the rat. The values were calculated based upon the two compartment models developed in this work

[3] = Solubility in water based solvent systems (vehicle selection); format: physicochemical
Experimental: A number of solvents which were able to dissolve xanthomicrol and calycopterin were investigated as vehicles for the delivery of these compounds into the blood stream. DMSO was chosen as it is relatively benign in terms of toxicological effects (a number of drug formulations or medical devices containing DMSO are marketed e.g., RIMSO-50 from Bioniche Pharma, USA and Dolicur from Schering, Germany). Also, the volume required as vehicle (200 μL) was small compared to total blood volume in rat (about 20 mL) and would be unlikely to have an appreciable effect on pharmacokinetics of flavonoids being studied.

HUVEC cell = tested on: HUVEC cell; set-up: method as in PMID 24895220; details: at 500 ng/mL; cited from earlier work
Balb/C mice [4] = assay: Toxicological study in mice: serum creatinin, ALT, AST (kidney and liver functions); format: in vivo; details: for Serum ALT / Serum AST / Serum Creatinin: mice, I.P.
Experimental: (§1) Toxicity studies were carried out using Balb/C mice in the 25-30 g weight range. Drug administration was via the I.P. methoud. Animals were assigned to five groups of three: one-Control groups which received no treatment, two-Vehicle control which received 60 μL of DMSO (dimethyl sulfoxide) for 6 days, 3- Test group one which received 30 mg/kg body weight xanthomicrol in 60 μL of DMSO per day, 4- Test group two which received 40 mg/kg body weight xanthomicrol on 60 μL of DMSO per day and 5- Test group three which received 50 mg/kg body weight xanthomicrol on 60 μL of DMSO per day. The animals were weighed and examined for changes in skin tone, signs of fur loss and changes in bowl function. On the seventh day, the animals were anaesthetized under an atmosphere of chloroform. Once fully anaesthetized, blood samples were collected from the heart and the animals were killed by cervical dislocation. Serum samples were analyzed for hepatic enzymes AST and ALT [16] and also for creatinin levels. Kidneys, liver, lung, intestines and stomach were removed from animals and placed in 10 % formalin solution for subsequent paraffin embedding, sectioning, staining and histological studies. Tissue sections were examined for fibrotic, inflammatory and vascular changes by a qualified pathologist.

Balb/C mice [5] = assay: Toxicological study in mice: tissue histology; format: in vivo
Experimental: as §1

Balb/C mice [6] = assay: Toxicological study in mice: body weight, mortality, behaviour, overt toxicity; format: in vivo; details: for toxic effects overall (behavioral, histological, biochemical): repeated administrations at administered doses (30, 40 and 50 mg/kg/day for six days)
Experimental: as §1

[7] = mice, 30, 40 or 50 mg/kg body weight
[8] = Test group 1 (30 mg/kg per day, I.P.), Lung/Liver/Heart/ Kidney, single animal
[9] = Test group 1 (30 mg/kg per day, I.P.), Small intestine/ Large intestine/ Gastric wall, single animals
[10] = Test group 2 (40 mg/kg per day, I.P.), Lung/Liver/Heart/ Kidney, single animals, listed as xanthimcrol, 40 mg/kg/day
[11] = Test group 2 (40 mg/kg per day, I.P.), Small intestine/ Large intestine/ Gastric wall, single animal
[12] = Test group 3 (50 mg/kg per day, I.P.), Lung/Liver/Heart/ Kidney, single animals
[13] = Test group 3 (50 mg/kg per day, I.P.), Lung/Liver/Heart/ Kidney, single animals, listed as xanthimcrol, 50 mg/kg/day
[14] = Test group 3 (50 mg/kg per day, I.P.), Small intestine/ Large intestine/ Gastric wall, single animal
[15] = mice, 30, 40 and 50 mg/kg/day for six days

COc1c(OC)c(O)c2c(=O)c(OC)c(-c3ccc(O)cc3)oc2c1OC [Calycopterin, calycopterin]
volume of distribution of calycopterin relative to xanthomicrol ([1]; i.v.): about 8 times
t1/2 (biological half-life) [1]: 3.8 h
K12 (rate constant of transfer from the peripheral compartment into the central compartment) [1]: 1.39 h⁻¹
K21 (rate constant of transfer from the central compartment into the peripheral compartment) [1]: 0.52 h⁻¹
half-life [1]: ~4 h
C0 [1]: 312 ng/mL
clearance [1]: 280 mL/min
k el [1]: 7.22e-05 s⁻¹
Vd [1]: 63.9 L
time after administration at which plasma concentration would dip below 500 ng/mL [2]: 30 min
solubility in water based solvent systems [3]: do not dissolve in water based solvent systems
effect on capillary-like tube formation (HUVEC cell): inhibited capillary-like tube formation

COc1c(OC)c(O)c2c(=O)cc(-c3ccc(O)cc3)oc2c1OC [Xanthomicrol, xanthomicrol]
t1/2 (biological half-life) [1]: 4.2 h
K12 (rate constant of transfer from the peripheral compartment into the central compartment) [1]: 1.88 h⁻¹
K21 (rate constant of transfer from the central compartment into the peripheral compartment) [1]: 0.46 h⁻¹
half-life [1]: ~4 h
C0 [1]: 2340 ng/mL
clearance [1]: 30 mL/min
k el [1]: 5.83e-05 s⁻¹
Vd [1]: 8.5 L
time for which plasma concentration would be greater than 500 ng/mL [2]: more than 6 h
difference in alanine transaminase (ALT) activity between control, vehicle and test groups (Balb/C mice [4]; [7]): no significant differences
difference in aspartic acid transaminase (AST) activity between control, vehicle and test groups (Balb/C mice [4]; [7]): no significant differences; also recorded: not significantly different
difference in serum creatinin content between control, vehicle and test groups (Balb/C mice [4]; [7]): no significant differences
Serum ALT (Balb/C mice [4]; 30 mg/kg per day for 6 days): 38 ± 8.8 IU/L
Serum AST (Balb/C mice [4]; 30 mg/kg per day for 6 days): 138 ± 37 IU/L
Serum ALT (Balb/C mice [4]; 40 mg/kg per day for 6 days): 22 ± 19 IU/L
Serum AST (Balb/C mice [4]; 40 mg/kg per day for 6 days): 130 ± 49 IU/L
Serum Creatinin (Balb/C mice [4]; 40 mg/kg per day for 6 days): 0.35 ± 0.036 mg/dL
Serum ALT (Balb/C mice [4]; 50 mg/kg per day for 6 days): 30 ± 3.0 IU/L
Serum AST (Balb/C mice [4]; 50 mg/kg per day for 6 days): 316 ± 163 IU/L
Serum Creatinin (Balb/C mice [4]; 50 mg/kg per day for 6 days): 0.39 ± 0.02 mg/dL
Fibrosin (Balb/C mice [5]; [8]): Absent
Inflammation structural change (Balb/C mice [5]; [8]): Absent
Notes (histology) (Balb/C mice [5]; [8]): Normal
Vascular change (Balb/C mice [5]; [8]): None
Fibrosin (Balb/C mice [5]; [9]): Absent
Inflammation structural change (Balb/C mice [5]; [9]): Absent
Notes (histology) (Balb/C mice [5]; [9]): Normal
Vascular change (Balb/C mice [5]; [9]): None
Fibrosin (Balb/C mice [5]; Test group 2 (40 mg/kg per day, I.P.), Lung/Liver/Heart/ Kidney, single animals): Absent
Inflammation structural change (Balb/C mice [5]; [10]): Lymphocyte infilteration in lung sample, Subcapsular inflammation in liver sample; also recorded: Focal inflammation in lung tissue
Notes (histology) (Balb/C mice [5]; [10]): Normal; also recorded: Increased type II pneumocytes
Vascular change (Balb/C mice [5]; [10]): Hypermic; also recorded: Increased vascularization in lung sample
Fibrosin (Balb/C mice [5]; [11]): Absent
Inflammation structural change (Balb/C mice [5]; [11]): Absent
Notes (histology) (Balb/C mice [5]; [11]): Normal
Vascular change (Balb/C mice [5]; [11]): None
Fibrosin (Balb/C mice [5]; [12]): Absent
Vascular change (Balb/C mice [5]; [12]): None
Inflammation structural change (Balb/C mice [5]; [13]): Focal inflammation in lung sample; also recorded: Absent
Notes (histology) (Balb/C mice [5]; [13]): Increased type II pneumocytes; also recorded: Normal
Fibrosin (Balb/C mice [5]; [14]): Absent
Inflammation structural change (Balb/C mice [5]; [14]): Absent
Vascular change (Balb/C mice [5]; [14]): None
Histological examination of tissue samples compared to the control group (Balb/C mice [5]; [15]): absence of significant pathological change; also recorded: unable to find xenobiotic induced damage to vital organs
change in animal weights compared to control group (Balb/C mice [6]; [15]): no change in animal weights
motor or behavioral abnormalities (Balb/C mice [6]; [15]): no animal showed any signs of motor or behavioral abnormalities
toxic effects overall (behavioral, histological, biochemical) (Balb/C mice [6]; mice): did not appear to have toxic effects
toxic effects overall (behavioral, histological, biochemical) (Balb/C mice [6]; mice, listed as xanthomicrol): failed to show any behavioral, histological and biochemical adverse effects
weight of animals (Balb/C mice [6]; mice, xanthomicrol groups, control group 27.1 g ± 1.2): 27.7 ± 1.7 g
acute toxic effects (Balb/C mice [6]; mouse, in vivo): appears not to have acute toxic effects
solubility in water based solvent systems [3]: do not dissolve in water based solvent systems
effect on capillary-like tube formation (HUVEC cell): inhibited capillary-like tube formation
